What is called IC50 is the concentration that gives 50% inhibition. The low end stands for inhibition by little substance, the high end for a need for much substance.

Each structure is given as a SMILES string.

The target of assay [1] is Serine/threonine-protein kinase 24 (Homo sapiens) (UniProt Q9Y6E0). In words: Selectivity interaction (KinomeScan (DiscoverX)) EUB0000595a STK24. The following applies: at 10 µM.
For assay [2], the target named is T1, Myosin-IIIb (Homo sapiens) (UniProt Q8WXR4).
T1 sequence (whole entry): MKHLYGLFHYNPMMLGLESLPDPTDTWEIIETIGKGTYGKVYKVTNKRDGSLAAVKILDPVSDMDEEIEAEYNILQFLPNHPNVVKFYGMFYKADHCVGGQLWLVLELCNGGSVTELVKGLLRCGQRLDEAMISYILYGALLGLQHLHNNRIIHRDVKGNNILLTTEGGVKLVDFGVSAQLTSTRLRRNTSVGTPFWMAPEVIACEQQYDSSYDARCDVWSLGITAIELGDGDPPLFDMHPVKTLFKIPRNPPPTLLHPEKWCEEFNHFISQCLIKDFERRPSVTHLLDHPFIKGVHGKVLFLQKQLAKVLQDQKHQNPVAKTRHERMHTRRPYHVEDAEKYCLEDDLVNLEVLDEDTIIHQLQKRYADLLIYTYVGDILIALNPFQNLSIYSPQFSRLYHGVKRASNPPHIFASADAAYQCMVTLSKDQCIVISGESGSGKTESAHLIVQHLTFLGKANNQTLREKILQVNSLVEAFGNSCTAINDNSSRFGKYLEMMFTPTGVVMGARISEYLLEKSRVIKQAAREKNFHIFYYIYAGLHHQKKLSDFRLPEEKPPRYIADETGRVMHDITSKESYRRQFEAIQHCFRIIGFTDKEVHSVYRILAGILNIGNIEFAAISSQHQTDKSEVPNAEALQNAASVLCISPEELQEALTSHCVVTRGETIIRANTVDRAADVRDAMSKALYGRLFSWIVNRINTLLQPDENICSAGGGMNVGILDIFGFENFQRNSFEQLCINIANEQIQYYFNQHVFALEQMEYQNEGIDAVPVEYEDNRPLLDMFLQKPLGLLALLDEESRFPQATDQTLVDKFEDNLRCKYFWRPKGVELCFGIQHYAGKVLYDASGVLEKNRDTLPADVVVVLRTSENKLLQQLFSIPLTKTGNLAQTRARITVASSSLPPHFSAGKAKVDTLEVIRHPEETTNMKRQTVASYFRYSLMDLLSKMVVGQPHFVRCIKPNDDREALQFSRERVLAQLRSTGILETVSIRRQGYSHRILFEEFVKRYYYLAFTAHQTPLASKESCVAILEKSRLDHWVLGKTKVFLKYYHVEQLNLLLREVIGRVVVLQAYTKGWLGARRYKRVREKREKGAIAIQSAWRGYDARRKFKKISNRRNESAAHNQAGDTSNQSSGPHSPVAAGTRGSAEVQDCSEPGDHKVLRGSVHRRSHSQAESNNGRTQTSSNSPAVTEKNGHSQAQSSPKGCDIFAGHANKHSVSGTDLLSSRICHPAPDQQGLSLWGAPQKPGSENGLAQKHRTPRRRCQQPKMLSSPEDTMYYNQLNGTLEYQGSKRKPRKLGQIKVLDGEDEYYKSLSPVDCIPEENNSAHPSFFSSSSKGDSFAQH
In words: Selectivity interaction (KinomeScan (DiscoverX)) EUB0001619a MYO3B. The following applies: at 1 µM.

The target in assay [3] is Tyrosine-protein kinase HCK (Homo sapiens) (UniProt P08631). The following applies: at 10 µM.
Assay [4] has as its target Homeodomain-interacting protein kinase 1 (Homo sapiens, UniProt Q86Z02). Particulars: at 10 µM.
Assay [5] addresses Vascular endothelial growth factor receptor 2 (Homo sapiens, UniProt P35968). In words: Selectivity interaction (Kinase panel (33PanQinase(R) Activity Assay)) EUB0000877a KDR.
For assay [6], the target named is T2, Phosphatidylinositol 5-phosphate 4-kinase type-2 beta (Homo sapiens) (UniProt P78356).
T2 sequence (whole entry): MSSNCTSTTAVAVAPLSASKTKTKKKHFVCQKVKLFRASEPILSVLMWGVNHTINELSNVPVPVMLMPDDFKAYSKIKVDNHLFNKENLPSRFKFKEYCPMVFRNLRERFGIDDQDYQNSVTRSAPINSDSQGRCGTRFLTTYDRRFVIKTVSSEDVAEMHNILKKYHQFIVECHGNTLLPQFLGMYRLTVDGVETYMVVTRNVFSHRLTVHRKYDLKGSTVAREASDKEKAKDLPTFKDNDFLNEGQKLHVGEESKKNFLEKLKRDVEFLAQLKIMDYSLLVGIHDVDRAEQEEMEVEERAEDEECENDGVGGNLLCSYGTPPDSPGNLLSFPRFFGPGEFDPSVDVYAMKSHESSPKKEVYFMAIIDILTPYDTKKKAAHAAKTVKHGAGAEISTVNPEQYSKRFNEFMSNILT
In words: Selectivity interaction (KinomeScan (DiscoverX)) EUB0000655a PIP4K2B. The following applies: at 10 µM.

Assay [7] deals with Ephrin type-A receptor 7 (Homo sapiens) (UniProt Q15375). In words: Selectivity interaction (KinomeScan (DiscoverX)) EUB0000655a EPHA7. The following applies: at 10 µM.
Assay [8] has as its target Cyclin-dependent kinase 9 (Homo sapiens, UniProt P50750). In words: Selectivity interaction (KinomeScan (DiscoverX)) EUB0000655a CDK9. The following applies: at 10 µM.
The target in assay [9] is T3, Serine/threonine-protein kinase Sgk3 (Homo sapiens) (UniProt Q96BR1).
T3 sequence (whole entry): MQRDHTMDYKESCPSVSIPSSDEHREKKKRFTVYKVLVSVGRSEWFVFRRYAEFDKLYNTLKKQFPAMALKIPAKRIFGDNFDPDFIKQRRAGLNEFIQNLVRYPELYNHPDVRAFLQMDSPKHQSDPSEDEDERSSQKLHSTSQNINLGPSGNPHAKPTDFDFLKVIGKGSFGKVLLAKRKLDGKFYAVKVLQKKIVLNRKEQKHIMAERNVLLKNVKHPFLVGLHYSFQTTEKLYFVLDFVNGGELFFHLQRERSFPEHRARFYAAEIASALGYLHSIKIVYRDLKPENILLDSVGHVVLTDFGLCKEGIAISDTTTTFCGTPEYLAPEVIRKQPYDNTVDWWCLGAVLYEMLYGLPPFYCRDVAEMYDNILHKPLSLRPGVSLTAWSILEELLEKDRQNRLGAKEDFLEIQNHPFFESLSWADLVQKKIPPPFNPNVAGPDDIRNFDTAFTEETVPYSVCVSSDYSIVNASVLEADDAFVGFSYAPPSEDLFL
In words: Selectivity interaction (KinomeScan (DiscoverX)) EUB0000655a SGK3. Particulars: at 10 µM.

In assay [10] the target is Serine/threonine-protein kinase PAK 1 (Homo sapiens) (UniProt Q13153). In words: Selectivity interaction (KinomeScan (DiscoverX)) EUB0000618a PAK1. Particulars: at 10 µM.
For assay [11], the target named is Dual specificity tyrosine-phosphorylation-regulated kinase 1A (Homo sapiens, UniProt Q13627). Kind of assay: Selectivity interaction (KinomeScan (DiscoverX)) EUB0000618a DYRK1A. The following applies: at 10 µM.
In assay [12] the target is Phosphatidylinositol 3-kinase catalytic subunit type 3 (Homo sapiens, UniProt Q8NEB9). Kind of assay: Selectivity interaction (KinomeScan (DiscoverX)) EUB0000229b PIK3C3. Particulars: at 10 µM.

Tyrosine-protein kinase HCK (Homo sapiens), sequence (P08631 2-526 limits assumed): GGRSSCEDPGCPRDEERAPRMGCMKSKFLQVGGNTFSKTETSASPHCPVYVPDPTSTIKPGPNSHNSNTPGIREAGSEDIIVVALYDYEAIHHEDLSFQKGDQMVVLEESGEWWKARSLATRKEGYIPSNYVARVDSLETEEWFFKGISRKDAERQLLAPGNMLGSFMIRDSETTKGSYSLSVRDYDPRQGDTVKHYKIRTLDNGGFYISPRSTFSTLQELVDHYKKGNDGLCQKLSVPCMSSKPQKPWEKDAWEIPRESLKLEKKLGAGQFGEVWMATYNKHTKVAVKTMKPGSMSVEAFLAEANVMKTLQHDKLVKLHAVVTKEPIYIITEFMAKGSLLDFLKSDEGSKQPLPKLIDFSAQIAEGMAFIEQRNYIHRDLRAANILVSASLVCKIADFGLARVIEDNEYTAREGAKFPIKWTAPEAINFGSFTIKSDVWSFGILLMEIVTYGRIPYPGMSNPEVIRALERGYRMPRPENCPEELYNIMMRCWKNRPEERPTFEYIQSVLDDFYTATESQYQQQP
Vascular endothelial growth factor receptor 2, sequence (P35968 whole entry): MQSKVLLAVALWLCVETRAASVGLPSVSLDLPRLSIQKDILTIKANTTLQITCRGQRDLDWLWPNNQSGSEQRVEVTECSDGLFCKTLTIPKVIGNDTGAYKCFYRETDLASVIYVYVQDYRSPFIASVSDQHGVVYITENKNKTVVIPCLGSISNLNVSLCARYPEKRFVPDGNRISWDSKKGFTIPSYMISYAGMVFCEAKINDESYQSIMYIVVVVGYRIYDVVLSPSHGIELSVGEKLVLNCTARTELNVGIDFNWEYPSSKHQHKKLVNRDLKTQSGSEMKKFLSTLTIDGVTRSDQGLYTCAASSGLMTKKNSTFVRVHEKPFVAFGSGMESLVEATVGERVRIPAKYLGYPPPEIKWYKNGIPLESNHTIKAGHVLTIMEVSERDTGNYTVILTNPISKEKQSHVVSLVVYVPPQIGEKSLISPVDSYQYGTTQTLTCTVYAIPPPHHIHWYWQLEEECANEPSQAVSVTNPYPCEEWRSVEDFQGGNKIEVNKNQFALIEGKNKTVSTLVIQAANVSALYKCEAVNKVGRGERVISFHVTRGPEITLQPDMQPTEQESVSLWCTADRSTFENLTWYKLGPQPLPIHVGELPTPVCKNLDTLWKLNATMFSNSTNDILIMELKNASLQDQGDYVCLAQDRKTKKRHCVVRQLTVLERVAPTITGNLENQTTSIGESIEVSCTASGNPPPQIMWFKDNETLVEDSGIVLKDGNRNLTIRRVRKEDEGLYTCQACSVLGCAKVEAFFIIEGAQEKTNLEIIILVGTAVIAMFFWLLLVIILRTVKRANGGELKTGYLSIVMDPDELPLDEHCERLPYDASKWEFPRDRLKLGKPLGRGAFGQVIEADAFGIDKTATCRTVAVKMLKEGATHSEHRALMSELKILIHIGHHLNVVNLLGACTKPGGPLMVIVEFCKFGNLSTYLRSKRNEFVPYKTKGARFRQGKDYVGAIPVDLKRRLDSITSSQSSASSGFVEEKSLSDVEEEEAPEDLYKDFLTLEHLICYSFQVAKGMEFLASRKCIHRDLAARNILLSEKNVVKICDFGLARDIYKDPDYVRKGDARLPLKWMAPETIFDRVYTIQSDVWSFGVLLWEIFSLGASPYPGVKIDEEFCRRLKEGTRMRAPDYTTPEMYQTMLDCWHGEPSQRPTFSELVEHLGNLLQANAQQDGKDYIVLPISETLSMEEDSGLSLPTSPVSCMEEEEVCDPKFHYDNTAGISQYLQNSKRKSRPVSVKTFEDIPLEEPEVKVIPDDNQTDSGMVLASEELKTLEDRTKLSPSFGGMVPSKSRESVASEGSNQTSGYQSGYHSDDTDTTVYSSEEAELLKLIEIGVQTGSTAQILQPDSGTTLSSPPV
Ephrin type-A receptor 7 (Homo sapiens), sequence (Q15375 28-998 limits assumed): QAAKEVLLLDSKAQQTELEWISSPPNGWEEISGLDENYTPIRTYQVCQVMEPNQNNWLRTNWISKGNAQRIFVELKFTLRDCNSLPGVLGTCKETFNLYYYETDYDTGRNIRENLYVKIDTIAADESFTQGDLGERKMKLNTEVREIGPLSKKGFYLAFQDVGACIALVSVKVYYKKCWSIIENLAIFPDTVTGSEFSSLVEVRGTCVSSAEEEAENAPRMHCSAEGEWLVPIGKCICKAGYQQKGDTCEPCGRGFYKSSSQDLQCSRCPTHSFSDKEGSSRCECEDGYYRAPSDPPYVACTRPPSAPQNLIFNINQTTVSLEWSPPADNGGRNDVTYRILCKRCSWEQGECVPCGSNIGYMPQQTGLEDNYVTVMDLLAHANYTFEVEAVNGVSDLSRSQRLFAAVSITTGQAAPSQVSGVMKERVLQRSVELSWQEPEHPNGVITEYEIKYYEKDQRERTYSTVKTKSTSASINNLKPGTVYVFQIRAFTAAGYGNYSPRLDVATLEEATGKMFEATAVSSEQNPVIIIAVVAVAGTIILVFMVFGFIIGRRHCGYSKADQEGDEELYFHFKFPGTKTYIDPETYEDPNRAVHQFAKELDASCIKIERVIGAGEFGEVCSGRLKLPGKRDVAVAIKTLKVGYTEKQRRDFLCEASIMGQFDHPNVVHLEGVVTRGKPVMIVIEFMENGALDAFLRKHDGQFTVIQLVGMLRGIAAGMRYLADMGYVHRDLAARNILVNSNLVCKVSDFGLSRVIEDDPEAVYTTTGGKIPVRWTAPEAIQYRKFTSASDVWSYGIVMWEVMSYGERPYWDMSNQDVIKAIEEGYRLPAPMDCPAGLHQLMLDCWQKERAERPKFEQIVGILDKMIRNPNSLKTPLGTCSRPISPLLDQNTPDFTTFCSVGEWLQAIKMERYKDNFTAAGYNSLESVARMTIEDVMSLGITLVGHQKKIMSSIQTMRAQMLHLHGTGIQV
Homeodomain-interacting protein kinase 1, sequence (Q86Z02 whole entry, looked up): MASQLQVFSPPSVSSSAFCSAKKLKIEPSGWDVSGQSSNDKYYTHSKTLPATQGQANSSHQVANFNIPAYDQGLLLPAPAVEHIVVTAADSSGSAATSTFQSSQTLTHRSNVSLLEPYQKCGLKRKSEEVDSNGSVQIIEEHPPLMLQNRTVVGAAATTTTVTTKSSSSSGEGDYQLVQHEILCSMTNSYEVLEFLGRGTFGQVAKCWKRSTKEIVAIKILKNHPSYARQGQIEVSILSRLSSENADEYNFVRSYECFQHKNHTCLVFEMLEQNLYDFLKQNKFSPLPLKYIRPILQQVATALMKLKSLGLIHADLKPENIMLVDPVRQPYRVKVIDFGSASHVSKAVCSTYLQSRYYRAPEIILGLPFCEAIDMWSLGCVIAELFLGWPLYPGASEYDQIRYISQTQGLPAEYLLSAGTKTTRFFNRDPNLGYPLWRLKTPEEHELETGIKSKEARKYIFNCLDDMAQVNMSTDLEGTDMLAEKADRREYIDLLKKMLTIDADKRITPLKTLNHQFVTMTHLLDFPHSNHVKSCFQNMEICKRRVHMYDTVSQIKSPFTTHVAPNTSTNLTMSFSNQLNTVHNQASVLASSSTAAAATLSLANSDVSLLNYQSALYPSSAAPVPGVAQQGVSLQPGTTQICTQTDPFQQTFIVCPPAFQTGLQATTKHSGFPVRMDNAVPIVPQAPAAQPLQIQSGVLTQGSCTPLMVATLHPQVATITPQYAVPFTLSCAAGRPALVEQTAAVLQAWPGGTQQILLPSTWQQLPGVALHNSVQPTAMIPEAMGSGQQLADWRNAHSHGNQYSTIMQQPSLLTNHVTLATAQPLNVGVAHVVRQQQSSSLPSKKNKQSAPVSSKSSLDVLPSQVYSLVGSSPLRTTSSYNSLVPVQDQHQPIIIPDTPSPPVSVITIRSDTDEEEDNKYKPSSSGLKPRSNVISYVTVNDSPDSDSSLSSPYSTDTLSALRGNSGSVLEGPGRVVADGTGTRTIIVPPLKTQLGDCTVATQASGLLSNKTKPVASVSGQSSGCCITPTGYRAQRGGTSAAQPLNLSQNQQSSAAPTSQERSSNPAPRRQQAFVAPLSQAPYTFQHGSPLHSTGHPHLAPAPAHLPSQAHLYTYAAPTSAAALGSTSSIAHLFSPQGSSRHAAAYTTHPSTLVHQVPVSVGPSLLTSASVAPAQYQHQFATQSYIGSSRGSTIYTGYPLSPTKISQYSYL
Cyclin-dependent kinase 9, sequence (P50750 whole entry): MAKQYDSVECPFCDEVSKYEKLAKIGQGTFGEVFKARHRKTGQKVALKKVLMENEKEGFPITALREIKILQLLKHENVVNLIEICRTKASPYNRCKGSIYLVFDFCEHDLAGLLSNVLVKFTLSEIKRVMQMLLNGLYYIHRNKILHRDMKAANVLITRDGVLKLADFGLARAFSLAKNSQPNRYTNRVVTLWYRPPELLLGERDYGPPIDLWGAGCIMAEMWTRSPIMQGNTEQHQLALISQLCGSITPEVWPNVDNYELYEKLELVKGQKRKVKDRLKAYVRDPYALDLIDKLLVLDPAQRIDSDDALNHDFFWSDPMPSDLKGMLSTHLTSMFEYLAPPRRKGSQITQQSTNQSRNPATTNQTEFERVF
Serine/threonine-protein kinase PAK 1 (Homo sapiens), sequence (Q13153 whole entry): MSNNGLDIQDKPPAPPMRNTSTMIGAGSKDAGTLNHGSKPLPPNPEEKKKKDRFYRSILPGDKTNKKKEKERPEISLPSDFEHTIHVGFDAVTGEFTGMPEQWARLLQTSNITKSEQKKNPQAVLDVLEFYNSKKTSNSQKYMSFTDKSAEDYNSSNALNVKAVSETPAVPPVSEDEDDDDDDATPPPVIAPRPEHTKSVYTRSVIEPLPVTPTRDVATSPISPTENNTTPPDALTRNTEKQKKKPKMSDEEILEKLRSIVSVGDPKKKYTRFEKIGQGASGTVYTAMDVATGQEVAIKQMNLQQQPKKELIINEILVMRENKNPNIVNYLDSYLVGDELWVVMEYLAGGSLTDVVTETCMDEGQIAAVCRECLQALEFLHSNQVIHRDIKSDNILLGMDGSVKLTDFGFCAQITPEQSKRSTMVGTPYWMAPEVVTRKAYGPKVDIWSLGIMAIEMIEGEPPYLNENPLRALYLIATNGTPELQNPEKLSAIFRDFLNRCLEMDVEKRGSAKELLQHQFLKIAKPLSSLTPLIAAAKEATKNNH

In turn, `COCC(=O)NC/C=C/c1ccc2ncnc(Nc3ccc(Oc4ccc(C)nc4)c(C)c3)c2c1` [CP-724714] displayed a % of control in assay [1] of 90%.

In [2], `N#Cc1cccc(-c2c[nH]c3ncnc(N4CCOCC4)c23)c1` registered a % of control of 100%.

In the case of `CCN(CC)CCCCNc1ncc2cc(-c3cc(OC)cc(OC)c3)c(NC(=O)NC(C)(C)C)nc2n1`, in assay [3], the % of control was determined as 100%.

For the molecule `Cc1cc([C@@H](C)Nc2ccccc2C(=O)O)c2nc(N3CCOCC3)cc(=O)n2c1` [AZD-6482], the % of control in [4] was found to be 100%.

In assay [5], `CCC(=O)N1CC[C@H](Nc2ncnc3c2CN(c2cnc(OC)c(C(F)(F)F)c2)CC3)C1` [LENIOLISIB] came in with an IC50 greater than 10 µM.

As for `CN(C)CCOc1ccc(-c2nc(-c3ccncc3)c(-c3ccc4c(c3)CC/C4=N\O)[nH]2)cc1`, the % of control in [6] stood at 94%; in assay [7] it was 100%; in [8] it was 100%; in [9], 88%.

With `O[C@H]1CC[C@H](Nc2ncc3nc(Nc4c(F)cc(F)cc4F)n([C@H]4CCOC4)c3n2)CC1`, the % of control in assay [10] stood at 99%; in assay [11], 98%.

As to `COc1cc(N(C)c2ccnc3ccc(C(F)(F)F)cc23)cc(OC)c1OC`, in assay [12], the % binding is 93%.

(Values after ChEMBL document CHEMBL5465560, “Selectivity Literature for EUbOPEN Chemogenomic Library” (2024).)
